Read-outs that look alike come from different tables or passages of the source.
Tests used:
Format in all cases: biochemical
[1] = biological target: T1, MAO-A (Homo sapiens, UniProt P21397); assay: UV/Vis, 4-hydroxyquinoline formation at […] nm
T1 construct: gene MAOA; FAD enzyme; PDB 2Z5X was only the docking model
T1 sequence (P21397 1-527): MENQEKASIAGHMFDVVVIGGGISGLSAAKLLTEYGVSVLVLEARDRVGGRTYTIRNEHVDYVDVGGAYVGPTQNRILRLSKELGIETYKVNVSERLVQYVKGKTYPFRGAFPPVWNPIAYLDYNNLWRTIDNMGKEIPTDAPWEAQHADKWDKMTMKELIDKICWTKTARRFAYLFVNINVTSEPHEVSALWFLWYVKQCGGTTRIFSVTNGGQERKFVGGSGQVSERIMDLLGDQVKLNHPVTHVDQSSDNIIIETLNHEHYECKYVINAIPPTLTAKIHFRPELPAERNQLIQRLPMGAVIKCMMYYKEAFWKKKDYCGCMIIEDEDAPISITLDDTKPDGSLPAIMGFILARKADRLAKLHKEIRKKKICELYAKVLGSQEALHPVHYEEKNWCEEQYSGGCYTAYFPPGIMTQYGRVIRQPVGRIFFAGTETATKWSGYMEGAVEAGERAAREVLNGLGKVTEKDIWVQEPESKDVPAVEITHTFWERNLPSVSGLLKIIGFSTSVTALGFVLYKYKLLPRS

[2] = biological target: T2, MAO-B (Homo sapiens, UniProt P27338); assay: UV/Vis, benzaldehyde formation at […] nm; details: 1.5 mM benzylamine, 30 μM MAO-B [sic], 50 mM HEPES pH 7.5, 0.5% Triton X-100, 25 °C; IC50 relative to fitted Imax (Hill-type fit); unreliable
T2 construct: gene MAOB; FAD enzyme; PDB 2V5Z was only the docking model
T2 sequence (P27338 2-520): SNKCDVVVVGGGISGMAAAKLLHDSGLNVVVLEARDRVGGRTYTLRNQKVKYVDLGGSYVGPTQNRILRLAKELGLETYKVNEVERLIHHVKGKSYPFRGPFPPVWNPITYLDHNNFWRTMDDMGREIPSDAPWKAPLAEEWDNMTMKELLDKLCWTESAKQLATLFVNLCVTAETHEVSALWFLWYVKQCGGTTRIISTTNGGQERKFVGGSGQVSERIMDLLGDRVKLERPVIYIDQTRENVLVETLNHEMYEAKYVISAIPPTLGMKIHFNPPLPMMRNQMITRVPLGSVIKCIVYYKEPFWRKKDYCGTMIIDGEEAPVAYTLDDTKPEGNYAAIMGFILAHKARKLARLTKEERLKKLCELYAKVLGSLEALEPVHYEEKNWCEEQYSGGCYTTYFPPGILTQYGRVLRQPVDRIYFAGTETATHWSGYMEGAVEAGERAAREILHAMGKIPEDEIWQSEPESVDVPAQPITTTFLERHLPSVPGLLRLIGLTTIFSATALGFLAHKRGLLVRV

[3] = biological target: T2, MAO-B; assay: UV/Vis, benzaldehyde formation at […] nm
[4] = biological target: T1, MAO-A; assay: steady-state UV/Vis, 4-hydroxyquinoline at […] nm; details: 20 μM MAO-A as printed, 50 mM HEPES pH 7.5, 0.5% Triton X-100, 25 °C

**Q.** For COC(=O)C(NC(=O)c1cn(CCCCCF)c2ccccc12)C(C)(C)C (stereo not shown) [compound 2, methyl‐2‐[[1‐(5‐fluoropentyl)indole‐3‐carbonyl]amino]‐3,3‐dimethyl‐butanoate], which IC50 [1] is on record?
**A.** 77.1 ± 1.09 µM

**Q.** And the “MAO-B / IC50” value [2]?
**A.** 0.69 ± 0.42 mM

**Q.** FCCCCCn1ccc2ccccc21 [compound 6, 1‐(5‐fluoropentyl)‐1H‐Indole] was tested. Which IC50 [3] did it give?
**A.** 650 ± 90 µM

**Q.** How did the IC50 [3] turn out when FCCCCCn1ncc2ccccc21 [compound 7, 1‐(5‐fluoropentyl)‐1H‐Indazole] was run?
**A.** 620 ± 20 µM

**Q.** Which IC50 [3] does the source give for CCCCCn1ccc2ccccc21 [compound 8, 1‐pentyl‐1H‐Indole] here?
**A.** 630 ± 30 µM

**Q.** CCCCCn1ncc2ccccc21 [compound 9, 1‐pentyl‐1H‐Indazole] was tested. Which IC50 [3] did it give?
**A.** 540 ± 30 µM

**Q.** Cn1ccc2ccccc21 [compound 10, 1‐methyl‐1H‐Indole] was tested. Which IC50 [3] did it give?
**A.** 500 ± 20 µM

**Q.** For NCCC(=O)c1ccccc1N [compound 12, kynuramine], which Km [4] is on record?
**A.** 140 ± 30 µM

**Q.** For “N‐[[1‐(5‐fluoropentyl)‐1H‐indazol‐3‐yl]carbonyl]‐3‐methyl‐D‐valine methyl ester [compound 1]”, which IC50 ([1]; 1 mM kynuramine, 20 μM MAO-A as printed, 50 mM HEPES pH 7.5, 0.5% Triton X-100, 25 °C, IC50 relative to fitted Imax (Hill-type fit)) is on record?
**A.** 87.8 ± 4.38 µM

**Q.** What about the IC50 ([3]; 1.5 mM benzylamine, 30 μM MAO-B [sic], 50 mM HEPES pH 7.5, 0.5% Triton X-100, 25 °C, IC50 relative to fitted Imax (Hill-type fit)) of the same compound?
**A.** 420 ± 190 µM

— paper PMC10952593, “Synthetic cannabinoid receptor agonists are monoamine oxidase‐A selective inhibitors” (The Febs Journal, 2023)
